From US6900239B2, “Tumor chemopotentiation using isocoumarin derivatives” (ILWZ ILEX Products, Inc., priority 2000, dated 2005)

Columns and labels:
MKN28 = assay: Cell growth (WST-1) in the presence of NM-3; type: cell-based; conditions: Homo sapiens, MKN-28, 72 h; 3 days culture; value somewhat low due to the influence of DMSO
PC6 = assay: Cell growth (WST-1) in the presence of NM-3; type: cell-based; conditions: Homo sapiens, PC-6, 72 h; 3 days culture with NM-3
[1] = test system: HT1080 (reticulum blast sarcoma cells); assay: Cell growth (WST-1) in the presence of NM-3; type: cell-based; conditions: Homo sapiens, HT-1080, 72 h; 3 days culture with NM-3
Protocol: (§1) To determine the extent to which NM-3 [2-(8-hydroxy-6-methoxy-1-oxo-1H-2-benzopyran-3-yl) propionic acid] inhibited the proliferation of, or was cytotoxic toward, human tumor cells and normal mouse cells, a variety of cell lines were grown in the presence of NM-3. The human cell lines used were K562 (leukemia cells), HT29 (colon tumor cells) HT1080 (reticulum blast sarcoma cells), and MCF7 (breast tumor cells). The mouse cells used were NIH3T3 cells (fibroblasts). All cell lines were cultured in 96-well plates to a density of 2-5×10^3 cells/well. Culture medium (RPMI 1640 plus 10% FBS) alone or containing NM-3 at one of several concentrations tested was then added to the cultures which were allowed to grow for an additional 3 days. To assess cell growth, 10 μl of WST-1 reagent (a chromogenic substrate for living cells) was added to each well and incubation continued for 3 hrs at 37° C. Absorbance at 450 nm was then determined using a plate reader.

HT29 (colon tumor cells) = assay: Cell growth (WST-1) in the presence of NM-3; type: cell-based; conditions: Homo sapiens, HT-29, 72 h; 3 days culture with NM-3
Protocol: as §1

K562 (leukemia cells) = assay: Cell growth (WST-1) in the presence of NM-3; type: cell-based; conditions: Homo sapiens, K562, 72 h; 3 days culture with NM-3
Protocol: as §1

[2] = test system: MCF7 (breast tumor cells); assay: Cell growth (WST-1) in the presence of NM-3; type: cell-based; conditions: Homo sapiens, MCF7, 72 h; 3 days culture with NM-3
Protocol: as §1

[3] = test system: NIH3T3 cells (fibroblasts); assay: Cell growth (WST-1) in the presence of NM-3; type: cell-based; conditions: Mus musculus, NIH3T3, 72 h; 3 days culture with NM-3
Protocol: as §1

Ehrlich carcinoma = assay: Ehrlich solid tumor growth; type: in vivo, ICR mice; conditions: for Inhibition (%): days 1~14; for Mean Tumor Weight (mg ± S.D.): days 1~14, measured day 15
Protocol: To determine the antitumor effect of NM-3 on growth of a solid tumor in vivo, 4×10^6 Ehrlich carcinoma cells per mouse were subcutaneously transplanted into ICR mice (female, 6 weeks old) in the inguinal area. NM-3 was continuously administered via the oral route for 14 days. Tumor weights were then measured on day 15 (Table 2). […] Thus, NM-3 treatment is associated with a significant reduction in the growth of solid tumors.

IMC carcinoma = assay: Combination with cyclophosphamide, tumor weight; type: in vivo, CDF1 mice; conditions: for Solid Weight mg ± S.D.: day 42
Protocol: To determine the effect on IMC carcinoma growth of NM-3 treatment combined with simultaneous cyclophosphamide treatment, IMC carcinoma cells (1×10^6 cells per mouse) were subcutaneously transplanted into CDF1 mice (female, 10 weeks old) in the inguinal area. NM-3 which was dissolved using 5% DMSO+Tween80, was continuously orally administered from day 1 to day 41 after transplantation except on day 14, when cyclophosphamide (300 mg/kg) was injected intravenously.

[4] = test system: Human umbilical vein endothelial cells (HUVEC); assay: HUVEC colony survival with increasing doses of X-rays; type: cell-based; conditions: highest X-ray dose
Protocol: In another study of HUVEC radiation sensitivity, cells were treated with NM-3 (100 ng/ml) 1 hr prior to exposure of the cells to increasing doses of gamma irradiation (X-rays). The numbers of HUVEC colonies that formed following the different treatments were recorded and normalized to the number of colonies formed under control conditions (see FIG. 2). Increasing doses of X-rays in the absence of NM-3 decreased HUvEC colony survival to a minimal value of 10% survival at the highest dose tested. In the presence of NM-3, HUVEC colony survival decreased to 0.01% of the initial living cells at the highest X-ray dose.

[5] = test system: MDAMB-435 human breast tumor xenografts; assay: MDAMB-435 orthotopic model, NM-3 with paclitaxel, second study (100 mm^3) and delivery routes; type: in vivo, female NCRNU nude mice
Protocol: In order to determine the effect of the combination of NM-3 with the cytotoxic drug, paclitaxel on human breast tumor xenografts, female NCRNU nude mice were implanted with MDAMB-435 cells into the subaxillary mammary fat pad. NM-3 was administered via intraperitoneal (i.p.) injection daily at doses ranging from 10-100 mg/kg; paclitaxel was administered via i.p. injection every 7 days, starting on day 0, at 10 mg/kg.
In a second study, treatment was initiated when tumor volumes reached 100 mm^3. Paclitaxel was administered at the fixed dose of 12.5 mg/kg, q7d and NM-3 was dosed at 10 and 100 mg/kg, i.p. daily for 28 days.
A comparison was also made between different delivery routes of NM-3 in the combination studies. NM-3 given i.p. daily, bid, and continuously using Alzet mini osmotic pumps in combination with paclitaxel was evaluated for effectiveness in reducing tumor growth.

[6] = test system: Lewis Lung Carcinoma (LLC); assay: NM-3 and ionizing radiation, tumor growth; type: in vivo, C57BL/6 nude mice
Protocol: The effects of NM-3 and IR on tumor growth were assessed in Lewis Lung Carcinoma (LLC), Seg-1, and SQ-20B tumors implanted in C57BL/6 nude mice.
By day 7, LLC tumors in the control group and the NM-3 group grew to 8.02±1.24 and 6.19±0.44 times original volume, respectively. Animals in these treatment groups were sacrificed on day 7 due to tumor burden. LLC tumors in the IR (20+20 Gy) group initially grew and then regressed to 1.06±0.08 times original volume (day 7). Regression was followed by regrowth to 2.98±0.83 times original volume at day 15 when the experiment was terminated. […] (FIG. 8A)

[7] = in vivo; cited from earlier work
[8] = NM-3 1 mg/kg p.o. days 1-13, 15-41 alone
[9] = NM-3 5 mg/kg p.o. days 1-13, 15-41 alone

## COc1cc(O)c2c(=O)oc(C(C)C(=O)O)cc2c1 (centres unmarked) [NM-3, 2-(8-hydroxy-6-methoxy-1-oxo-1H-2-benzopyran-3-yl) propionic acid]
MKN28
  IC50: 175 µg/mL
PC6
  IC50: > 500 µg/mL
[1]
  IC50: 300 µg/mL
HT29 (colon tumor cells)
  IC50: > 300 µg/mL
K562 (leukemia cells)
  IC50: 250 µg/mL
[2]
  IC50: 223 µg/mL
[3]
  IC50: > 100 µg/mL
Ehrlich carcinoma; 0.63 mg/kg p.o.
  Inhibition (%): 33.1%
Ehrlich carcinoma; 1.25 mg/kg p.o.
  Inhibition (%): 59.5%
  Mean Tumor Weight (mg ± S.D.): 497.7 ± 265.5 mg
Ehrlich carcinoma; 2.5 mg/kg p.o.
  Inhibition (%): 57.7%
  Mean Tumor Weight (mg ± S.D.): 519.5 ± 319.3 mg
Ehrlich carcinoma; 5 mg/kg p.o.
  Inhibition (%): 52.0%
  Mean Tumor Weight (mg ± S.D.): 589.7 ± 338.3 mg
Ehrlich carcinoma; 1.25 to 5 mg/kg p.o.
  Tumor size versus control: significantly reduced in size
IMC carcinoma; [8]
  Inhibition (%): 10.2%
  Solid Weight mg ± S.D.: 11,093.0 ± 2040.6 mg
IMC carcinoma; [9]
  Inhibition (%): 12.6%
  Solid Weight mg ± S.D.: 10792.4 ± 2979.7 mg
IMC carcinoma; NM-3 alone
  Tumor weight versus control: did not significantly reduce tumor weight
[4]; NM-3 100 ng/ml 1 hr prior to irradiation
  HUVEC colony survival: 0.01%
[4]; NM-3 100 ng/ml
  Increase of sensitivity to X-ray induced lethality: approximately 1000 fold
[5]; NM-3 100 mg/kg I.P. daily alone
  % Tumor Growth Inhibition: 26.67%
[5]; NM-3 100 mg/kg I.P. daily alone, 28 days
  Final Tumor Ratio (V/Vo) +/− SEM: 4.70 ± 0.56 V/Vo
[5]; NM-3 100 mg/kg I.P. daily alone, n 9
  Mice with Complete Shrinkage: 0
[5]; NM-3 alone, daily dose of 10 mg/kg
  Tumor growth inhibition: no significant tumor growth inhibition
[6]; NM-3 alone, day 7
  Tumor volume: 6.19±0.44 times original volume
[6]; NM-3 combined with IR (20+20 Gy), day 3, 4, 5, 9, 11, 13 and 15
  Mean tumor volume compared with IR alone: significantly reduced mean tumor volume
[7]
  Stability: highly stable
